From patent publication US9629866B2, “Use of cordycepin in manufacture of medicaments for anti-depression” (BEIJING GRAGEN BIOTECHNOLOGY CO. LTD., priority 2012, dated 2017) come the findings set out here.

What all share (format): in vivo
The test system of series [1] is CD1 male mice. Description: Mice tail suspension test (animal depression model). On the procedure: In the mice tail suspension test, mice present the special quiet immobility state without any struggle in the tail suspension state, and antidepressant drugs can obviously shorten the duration of the immobility state. When tested, mice tails are fixed with clips, hanging upside-down. […] The time of immobility is recorded. The immobility indicator is “animal has no body movement in addition to breathing”. […] Laboratory Animal: CD1 mice, male, 25 g˜35 g, provided by Beijing Vital River Laboratories (VRL) (License No.: SCXK (Beijing), 2011-0011). Animals were kept in separate cages with free access to water; feed is provided by Laboratory Animal Center, Institute of Genetics and Developmental Biology, Chinese Academy of Sciences; laboratory mice ate ordinary feed. […] Drugs were delivered at 10 a.m. by intraperitoneal injection, 90 minutes after which tail suspension test statistics started. In mice tail suspension test, mice tails were stuck to a horizontal rail with tape 2 cm away from the tail tip, making animals upside down, whose heads were about 15 cm from the desktop. After observing for 6 minutes, the accumulative immobility time within the following 4 minutes was recorded. The immobility indicator was “animal has no body movement in addition to breathing”. Statistical Method: The laboratory results were all expressed by “mean value±SE”; two sample means were compared by t test.

The test system of series [2] is CD1 male mice. Briefly: Mice forced swimming test. The note with it: for forced swimming immobility time within 4 minutes: blank control 111.96±14.58 s, mean±SE, P<0.05. An excerpt: “Immobility” herein refers to that “animals stop struggling in the water, or stay in a floating state, only showing nostrils for breathing with only small body movement to keep the head floating on the water”. Before the test, the drugs to be screened are given. The animals in the condition of forced swimming cannot escape from the harsh environment, leading to despairing animal behaviors. […] Laboratory Animal: CD1 mice, male, provided by Beijing Vital River Laboratories (VRL) (License No.: SCXK (Beijing), 2011-0011). Animals were kept in separate cages a week before test, with a light and shade cycle of 12 h/12 h, at room temperature 20° C.˜22° C., and with free access to water and food. Feed is provided by Laboratory Animal Center, Institute of Genetics and Developmental Biology, Chinese Academy of Sciences. CD1 mice, 7 weeks old, 25 g-35 g, were used for test after acclimating for 1 week. Mice were divided into 5 groups randomly, 8 mice for each. They were treated in the same way as Example 1: Drugs were delivered at 10 a.m. by intraperitoneal injection, once a day for 3 days, then forced swimming test started. Forced swimming test: All CD1 mice in each group were separately and vertically put into the organic glass cylinder (40 cm×14 cm in diameter) with 15 cm-depth and 23° C. water. After recoding a video of each dose group and control group for 6 minutes, the accumulative immobility time within the following 4 minutes was compared between each group. […] The laboratory results were all expressed by “mean value±SE”; two sample means were compared by t test.

The subject of series [3] is CD1 male mice. Description: Mice open field test to verify central excitability. The note with it: measuring time 1 h/mouse, control 424.15+82.78 s, Anova p>0.05, N=12. An excerpt: Laboratory materials and methods are the same as Example 1 and Example 2.
Considering that the reduced immobility time of animals in classic animal depression models may be due to the central excitability effect of drugs, we conducted a mice open field test to verify the central excitability of cordycepin. Mice were processed 1 d before the open field behavior test. They were kept in the open box with 80 cm in both length and width, 40 cm in height, black wall, 16 equal sections in area, and indoor sound insulation. After the test started, mice were put in the middle of the box, and the time of mice staying in the central 4 sections was taken as a parameter. The measuring time was 1 h/mouse every time. […] Besides, there is no rising trend, so for cordycepin, the possibility of causing the manic state can be ruled out.

[4] abbreviates: high-dose 12.5 mg/kg i.p. once a day for 3 days.
The mark [5] stands for this setting: low-dose 5 mg/kg i.p. once a day for 3 days.

For the molecule `Nc1ncnc2c1ncn2[C@@H]1O[C@H](CO)C[C@H]1O` [cordycepin, 3′-deoxyadenosine], the “time needed for antidepressant effect to be very obvious” value with CD1 male mice [1] (high-dose 12.5 mg/kg i.p.) came out at 1.5 h. The “decrease of tail suspension immobility time vs blank control” value with CD1 male mice [1] (high-dose 12.5 mg/kg i.p., 90 min after injection) was 60.8%. The “tail suspension immobility time” value in the series with CD1 male mice [1] (high-dose 12.5 mg/kg i.p., 90 min after injection, blank control 86.43±20.37 s, mean±SE, P<0.05) amounted to 33.86 ± 7.46 s. Also, the “tail suspension immobility time vs control” value in the series on CD1 male mice [1] (low-dose 5 mg/kg i.p., 90 min after injection) is listed as “has not been significantly reduced”. In addition, in the series on CD1 male mice [2] (setting [4]), the “antidepressant effect compared with imipramine (15 mg/kg)” value is on record as “stronger antidepressant effects”. In addition, the “decrease of forced swimming immobility time vs blank control” value in the series on CD1 male mice [2] (setting [4]) was found to be 68.8%; with CD1 male mice [2] (setting [5]), 37.6%. The “forced swimming immobility time within 4 minutes” value came to 34.94 ± 12.16 s in the series with CD1 male mice [2] (setting [4]) and 69.88 ± 10.25 s with CD1 male mice [2] (setting [5]). The “time staying in the central 4 sections” value was 379.88+95.28 s in the series on CD1 male mice [3] (high-dose group) and 399.75+72.25 s in the series on CD1 male mice [3] (low-dose group).
